Patent publication US7816535B2, “Vinyl-phenyl derivatives for inflammation and immune-related uses” (Synta Pharmaceuticals Corp., priority 2006, dated 2010)

System: IL-2 production
Assay: Inhibition of IL-2 production in PHA-activated Jurkat cells (ELISA)
Format: cell-based
Details: Homo sapiens, Jurkat, 20 h, PHA 2.5 μg/mL, IL-2 ELISA
Experimental: Jurkat cells were placed in a 96 well plate (0.5 million cells per well in 1% FBS medium) then a test compound of this invention was added at different concentrations. After 10 minutes, the cells were activated with PHA (final concentration 2.5 μg/mL) and incubated for 20 hours at 37° C. under CO2. The final volume was 200 μL. Following incubation, the cells were centrifuged and the supernatants collected and stored at −70° C. prior to assaying for IL-2 production. A commercial ELISA kit (IL-2 Eli-pair, Diaclone Research, Besancon, France) was used to detect production of IL-2, from which dose response curves were obtained. The IC50 value was calculated as the concentration at which 50% of maximum IL-2 production after stimulation was inhibited versus a non-stimulation control.

| Compound | IC50 [nM] |
| --- | --- |
| O=CC1=C(c2ccc(NC(=O)c3c(F)cccc3F)cc2)CN(c2nccs2)CC1 [Compound 78, 2,6-Difluoro-N-[4-(1-thiazol-2-yl-4-formyl-1,2,5,6-tetrahydro-pyridin-3-yl)-phenyl]-benzamide] | 227 |
| CC1=C(c2ccc(NC(=O)c3c(F)cccc3F)cc2)CCN(c2nccs2)C1 [Compound 91, 2,6-Difluoro-N-[4-(1-thiazol-2-yl-3-methyl-1,2,5,6-tetrahydro-pyridin-4-yl)-phenyl]-benzamide] | 226 |
| COc1ccc(C(=C(C)C)c2ccc(NC(=O)c3c(F)cccc3F)cc2)cc1 [Compound 93, 2,6-Difluoro-N-{4-[2-methyl-1-(4-methoxy-phenyl)-propenyl]-phenyl}-benzamide] | 54.6 |
| CC(=O)OCC(C)=C(C)c1ccc(NC(=O)c2c(F)cccc2F)cc1 [Compound 96, 2,6-Difluoro-N-[4-(1,2-dimethyl-3-acetoxy-propenyl)-phenyl]-benzamide] | 631 |
| O=CC1=C(c2ccc(NC(=O)c3c(F)cccc3F)cc2)CCCC1 [Compound 100, N-[4-(2-formyl-cyclohex-1-enyl)-phenyl]-2,6-difluoro-benzamide] | 90 |
| C=CC1=C(c2ccc(NC(=O)c3c(F)cccc3F)cc2)CCCC1 [Compound 101, N-[4-(2-vinyl-cyclohex-1-enyl)-phenyl]-2,6-difluoro-benzamide] | 11 |
| COC(=O)N1CCC(C)=C(c2ccc(NC(=O)c3ccncc3C)cc2)C1 [Compound 103, N-[4-(1-methoxycarbonyl-4-methyl-1,2,5,6-tetrahydro-pyridin-3-yl)-phenyl]-3-methyl-isonicotinamide] | 150 |

Second part, the molecule after the results:

| IC50 [nM] | Compound |
| --- | --- |
| 99.3 | CC1=C(c2ccc(NC(=O)c3ncncc3C)cc2)CN(c2nccs2)CC1 [Compound 77, 5-Methyl-pyrimidine-4-carboxylic acid [4-(1-thiazol-2-yl-4-methyl-1,2,5,6-tetrahydro-pyridin-3-yl)-phenyl]-amide] |
| 98.5 | CC1=C(c2ccc(NC(=O)c3c(F)cccc3F)cc2)CN(c2nc(C)co2)CC1 [Compound 80, 2,6-Difluoro-N-{4-[1-(4-methyl-oxazol-2-yl)-4-methyl-1,2,5,6-tetrahydro-pyridin-3-yl]-phenyl}-benzamide] |
| > 1000 | CC1=C(c2ccc(NC(=O)c3ncncc3C)cc2)CN(c2nc(C)c(C)o2)CC1 [Compound 81, 5-Methyl-pyrimidine-4-carboxylic acid {4-[1-(4,5-dimethyl-oxazol-2-yl)-4-methyl-1,2,5,6-tetrahydro-pyridin-3-yl]-phenyl}-amide] |
| 59.5 | CC1=C(c2ccc(NC(=O)c3c(F)cccc3F)cc2)CN(c2nc(C)c(C)o2)CC1 [Compound 82, 2,6-Difluoro-N-{4-[1-(4,5-dimethyl-oxazol-2-yl)-4-methyl-1,2,5,6-tetrahydro-pyridin-3-yl]-phenyl}-benzamide] |
| 44.1 | CC1=C(c2ccc(NC(=O)c3ccncc3F)cc2)CN(c2nnnn2C)CC1 [Compound 85, N-{4-[1-(1-methyl-1H-tetrazol-5-yl)-4-methyl-1,2,5,6-tetrahydro-pyridin-3-yl]-phenyl}-3-fluoro-isonicotinamide] |
| 126 | CC1=C(c2ccc(NC(=O)c3ccncc3F)cc2)CN(c2cncnc2)CC1 [Compound 90, N-[4-(1-pyrimidin-5-yl-4-methyl-1,2,5,6-tetrahydro-pyridin-3-yl)-phenyl]-3-fluoro-isonicotinamide] |
| 43.8 | CC(C)=C(c1ccccc1)c1ccc(NC(=O)c2c(F)cccc2F)cc1 [Compound 92, 2,6-Difluoro-N-[4-(2-methyl-1-phenyl-propenyl)-phenyl]-benzamide] |
| 138 | COc1cccc(C(=C(C)C)c2ccc(NC(=O)c3c(F)cccc3F)cc2)c1 [Compound 94, 2,6-Difluoro-N-{4-[2-methyl-1-(3-methoxy-phenyl)-propenyl]-phenyl}-benzamide] |
| 156 | COc1ccccc1C(=C(C)C)c1ccc(NC(=O)c2c(F)cccc2F)cc1 [Compound 95, 2,6-Difluoro-N-{4-[2-methyl-1-(2-methoxy-phenyl)-propenyl]-phenyl}-benzamide] |
| 282 | CCOC(=O)C1=C(c2ccc(NC(=O)c3c(F)cccc3F)cc2)CCCC1 [Compound 99, N-[4-(2-ethyoxycarbonyl-cyclohex-1-enyl)-phenyl]-2,6-difluoro-benzamide] |
